Test results published in patent US7790895B2, “Quinoline derivatives as potassium ion channel openers” (Janssen Pharmaceutica NV, priority 2005, dated 2010).

Molecular target: T1, KATP channels (Homo sapiens, UniProt O60706)
T1 construct: TE671 human medulloblastoma cells were obtained from ATCC; host or cells: TE671 human medulloblastoma cells
Assay: Potassium Channel Assay (FLIPR membrane potential, KATP channel opening)
Type: cell-based
Details: TE671 human medulloblastoma cells, Membrane Potential Assay Dye, room temperature
Protocol: TE671 human medulloblastoma cells were obtained from ATCC and grown in Dulbecco's modified Eagle's medium (DMEM) supplemented with 10% fetal bovine serum, 100 U/ml penicillin and 100 U/ml streptomycine.
The day before testing, the cells were plated in black 96-well plates at 50K/well. On the day of testing, the growth media was removed, then 100 μl of FLIPR buffer (20 mM HEPES, 120 mM NaCl, 2 mM KCl, 2 mM CaCl2, 1 mM MgCl2, 5 mM Glucose) and 100 μl of Membrane Potential Assay Dye (Molecular Devices) dissolved in FLIPR buffer were added to each well. The cells were incubated at room temperature for 15 to 30 min.
The effect of test compounds on KATP channels were evaluated on a fluorometric imaging plate reader (FLIPR, Molecular Devices) at room temperature. After a baseline period, 50 μl of 5× stock solution of test compound prepared in FLIPR buffer was added and fluorescence change was monitored for 3 minutes. After this reading, glyburide, a KATP channel blocker, was added to a final concentration of 5 μM to check the specificity of the test compound as a KATP channel opener. Hyperpolarization resulting from KATP channel opening was observed as a decrease in fluorescence intensity.

T1 sequence (O60706 1-1549 isoform O60706-2): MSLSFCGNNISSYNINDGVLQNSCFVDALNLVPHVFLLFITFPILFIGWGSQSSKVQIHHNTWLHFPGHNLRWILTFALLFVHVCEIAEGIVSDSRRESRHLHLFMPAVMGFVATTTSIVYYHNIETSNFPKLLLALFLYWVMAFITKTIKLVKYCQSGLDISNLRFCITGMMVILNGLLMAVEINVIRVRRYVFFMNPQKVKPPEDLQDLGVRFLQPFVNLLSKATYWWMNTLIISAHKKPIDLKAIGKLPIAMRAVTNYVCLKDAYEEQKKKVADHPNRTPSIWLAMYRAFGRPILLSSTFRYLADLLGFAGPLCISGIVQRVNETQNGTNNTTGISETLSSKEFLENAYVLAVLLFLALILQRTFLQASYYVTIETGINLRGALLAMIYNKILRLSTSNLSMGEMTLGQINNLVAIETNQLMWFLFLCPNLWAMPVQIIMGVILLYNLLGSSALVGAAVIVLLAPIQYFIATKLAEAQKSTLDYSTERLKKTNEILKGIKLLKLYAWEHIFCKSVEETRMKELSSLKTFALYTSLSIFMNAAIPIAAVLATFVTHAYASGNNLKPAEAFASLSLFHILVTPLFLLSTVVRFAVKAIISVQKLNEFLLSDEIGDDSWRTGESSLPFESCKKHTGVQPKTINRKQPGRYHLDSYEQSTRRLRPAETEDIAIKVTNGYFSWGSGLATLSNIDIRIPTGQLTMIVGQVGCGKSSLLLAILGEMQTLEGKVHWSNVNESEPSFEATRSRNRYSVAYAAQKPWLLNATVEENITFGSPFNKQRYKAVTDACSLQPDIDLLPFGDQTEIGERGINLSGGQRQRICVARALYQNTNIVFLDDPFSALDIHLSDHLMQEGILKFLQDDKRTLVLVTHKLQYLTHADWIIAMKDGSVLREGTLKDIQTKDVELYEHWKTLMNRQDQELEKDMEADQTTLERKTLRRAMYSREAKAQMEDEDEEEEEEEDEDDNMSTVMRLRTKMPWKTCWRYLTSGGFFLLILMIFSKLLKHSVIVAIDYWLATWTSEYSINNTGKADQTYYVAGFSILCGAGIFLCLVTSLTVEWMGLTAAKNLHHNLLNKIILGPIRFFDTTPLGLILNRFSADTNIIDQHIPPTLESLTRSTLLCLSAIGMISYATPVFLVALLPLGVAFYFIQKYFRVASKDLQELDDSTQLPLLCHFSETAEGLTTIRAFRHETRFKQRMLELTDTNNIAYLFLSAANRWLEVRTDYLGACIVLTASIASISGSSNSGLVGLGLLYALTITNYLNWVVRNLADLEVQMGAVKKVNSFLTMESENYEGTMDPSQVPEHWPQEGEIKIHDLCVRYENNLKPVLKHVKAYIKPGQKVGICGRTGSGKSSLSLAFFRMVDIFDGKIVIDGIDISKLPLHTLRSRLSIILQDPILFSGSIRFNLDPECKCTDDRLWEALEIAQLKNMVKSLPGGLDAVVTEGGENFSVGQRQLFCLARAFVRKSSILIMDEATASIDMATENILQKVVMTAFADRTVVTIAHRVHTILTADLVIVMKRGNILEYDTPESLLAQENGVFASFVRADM
T1 sequence (Q14654 whole entry partner): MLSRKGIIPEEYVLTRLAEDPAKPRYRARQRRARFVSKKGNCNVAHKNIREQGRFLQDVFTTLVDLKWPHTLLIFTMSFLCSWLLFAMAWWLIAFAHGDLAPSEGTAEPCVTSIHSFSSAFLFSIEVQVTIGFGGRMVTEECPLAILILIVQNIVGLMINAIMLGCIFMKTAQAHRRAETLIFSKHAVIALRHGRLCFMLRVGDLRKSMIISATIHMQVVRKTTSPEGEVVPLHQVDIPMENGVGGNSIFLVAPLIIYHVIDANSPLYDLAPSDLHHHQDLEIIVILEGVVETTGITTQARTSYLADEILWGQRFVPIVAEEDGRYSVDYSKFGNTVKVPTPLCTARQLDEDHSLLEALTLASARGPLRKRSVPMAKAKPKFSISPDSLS

Structure (SMILES) | EC50 [µM] | % Stimulation (test concentration not given) [%]
N#Cc1cccc(-c2ccncc2CO)c1 [Compound 50, 3-(3-Hydroxymethyl-pyridin-4-yl)-benzonitrile] | > 30 | 
N#Cc1cccc(-c2ccncc2C=O)c1 [Compound 51, 3-(3-Formyl-pyridin-4-yl)-benzonitrile] | > 30 | 
CC(O)c1cnccc1-c1cccc(C#N)c1 (stereo not shown) [Compound 52, 3-[3-(1-Hydroxy-ethyl)-pyridin-4-yl]-benzonitrile] | 17.2 | 
COc1ccc(C=O)cc1-c1ccncc1C=O [Compound 53, 4-(5-Formyl-2-methoxy-phenyl)-pyridine-3-carbaldehyde] | > 30 | 30
N#Cc1cccc(C2OC(O)c3cnccc32)c1 (stereo not shown) [Compound 55, 3-(3-Hydroxy-1,3-dihydro-furo[3,4-c]pyridin-1-yl)-benzonitrile] | > 30 | 
OCc1cnccc1C(O)c1ccccc1 (stereo not shown) [Compound 56, (3-Hydroxymethyl-pyridin-4-yl)-phenyl-methanol] | > 30 | 
N#Cc1cccc(C(O)c2ccncc2CO)c1 (stereo not shown) [Compound 57, 3-[Hydroxy-(3-hydroxymethyl-pyridin-4-yl)-methyl]-benzonitrile] | > 30 | 
COc1ccc(CO)cc1-c1ccncc1CO [Compound 58] | > 30 | 
CC(O)c1cnccc1C(=O)c1ccccc1 (stereo not shown) [Compound 59, [3-(1-Hydroxy-ethyl)-pyridin-4-yl]-phenyl-methanone] | 26.8 | 
CC(C)C(O)c1cnccc1Br (stereo not shown) [Compound 63, 1-(4-Bromo-pyridin-3-yl)-2-methyl-propan-1-ol] | 7.97 | 
OC1OC(c2ccccc2)c2ccncc21 (stereo not shown) [Compound 65, 1-Phenyl-1,3-dihydro-furo[3,4-c]pyridin-3-ol] | > 30 | 
N#Cc1cccc(C2OCc3cnccc32)c1 (stereo not shown) [Compound 66, 3-(1,3-Dihydro-furo[3,4-c]pyridin-1-yl)-benzonitrile] | 8.19 | 
